Drawing on US20120225062A1 (priority 2011, published 2012), this text covers IC50 and EC50 for eight molecules.

In one test the target is Pim 3 (Homo sapiens, UniProt Q86V86). The experiment in a line: Pim 3 AlphaScreen assay (high ATP).
Another test addresses Pim 2 (Homo sapiens, UniProt Q9P1W9). The experiment in a line: Pim 2 AlphaScreen assay (high ATP).
The target of another test is Pim 1 (Homo sapiens, UniProt P11309). In words: Pim 1 AlphaScreen assay (high ATP).
The test system of test [1] is KMS11 (human myeloma cell line). In words: Cell Proliferation Assay (CellTiter-Glo, 3 days). It is filed as cell-based. The conditions noted are these: KMS-11, 72 h, KMS11-luc cells. A digest of the protocol:
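EC50 from CellTiter-Glo luminescence after 3-day, 37° C compound treatment of KMS11 cells seeded at 2000 per well in IMDM plus 10% FBS.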

The structures appear in SMILES notation.

Sequence of Pim 2 (Q9P1W9 whole entry): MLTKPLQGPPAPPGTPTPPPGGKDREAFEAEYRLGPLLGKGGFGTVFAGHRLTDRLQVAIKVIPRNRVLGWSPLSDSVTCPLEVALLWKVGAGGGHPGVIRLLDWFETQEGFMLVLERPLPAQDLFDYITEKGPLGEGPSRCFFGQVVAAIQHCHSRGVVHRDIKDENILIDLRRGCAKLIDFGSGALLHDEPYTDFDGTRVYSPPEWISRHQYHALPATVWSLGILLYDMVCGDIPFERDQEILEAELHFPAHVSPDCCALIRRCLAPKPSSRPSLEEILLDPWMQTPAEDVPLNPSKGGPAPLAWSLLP
Sequence of Pim 1 (P11309 whole entry): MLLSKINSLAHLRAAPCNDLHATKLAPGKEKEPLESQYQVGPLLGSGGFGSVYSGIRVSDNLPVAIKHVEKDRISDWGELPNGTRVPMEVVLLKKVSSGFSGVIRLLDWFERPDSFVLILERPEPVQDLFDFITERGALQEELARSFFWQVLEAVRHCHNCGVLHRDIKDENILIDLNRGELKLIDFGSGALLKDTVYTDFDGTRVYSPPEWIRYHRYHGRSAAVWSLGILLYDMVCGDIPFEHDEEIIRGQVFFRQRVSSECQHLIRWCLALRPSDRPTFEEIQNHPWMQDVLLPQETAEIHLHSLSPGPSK

On to `COCCOc1cc(F)c(-c2nc(C(=O)Nc3cnccc3N3C[C@@H](N)[C@H](O)[C@@H](C)C3)ccc2F)c(F)c1` [Example 22, N-(4-((3R,4R,5S)-3-amino-4-hydroxy-5-methylpiperidin-1-yl)pyridin-3-yl)-6-(2,6-difluoro-4-(2-methoxyethoxy)phenyl)-5-fluoropicolinamide], for which the half-maximal inhibitory concentration (IC50) was found to be 0.45 nM on Pim 3, 1.5 nM against Pim 2 and 0.03 nM against Pim 1. In addition, in test [1], the EC50 was found to be 10 nM.

For `CSc1cc(F)c(-c2nc(C(=O)Nc3cnccc3N3C[C@@H](N)[C@H](O)[C@@H](C)C3)ccc2F)c(F)c1` [Example 23, N-(4-((3R,4R,5S)-3-amino-4-hydroxy-5-methylpiperidin-1-yl)pyridin-3-yl)-6-(2,6-difluoro-4-(methylthio)phenyl)-5-fluoropicolinamide], the half-inhibitory concentration (IC50) worked out at 0.32 nM against Pim 3, 0.96 nM against Pim 2 and 0.02 nM against Pim 1. The molecule also displayed an EC50 in test [1] of 29 nM.

For `COCCOc1cc(F)c(-c2nc(C(=O)Nc3cnccc3[C@H]3C[C@@H](N)[C@H](O)[C@@H](C)C3)ccc2F)c(F)c1` [Example 24, N-(4-((1R,3R,4R,5S)-3-amino-4-hydroxy-5-methylcyclohexyl)pyridin-3-yl)-6-(2,6-difluoro-4-(2-methoxyethoxy)phenyl)-5-fluoropicolinamide], the IC50 was 2.46 nM on Pim 3, 5.57 nM against Pim 2 and 0.07 nM on Pim 1. Moreover, the EC50 in test [1] worked out at 72 nM.

With `C[C@H]1CN(c2ccncc2NC(=O)c2ccc(F)c(-c3c(F)cc([S@+](C)[O-])cc3F)n2)C[C@@H](N)[C@@H]1O` [Example 25, N-(4-((3R,4R,5S)-3-amino-4-hydroxy-5-methylpiperidin-1-yl)pyridin-3-yl)-6-(2,6-difluoro-4-((S)-methylsulfinyl)phenyl)-5-fluoropicolinamide], the 50% inhibitory concentration (IC50) against Pim 3 came to 0.37 nM; against Pim 2 it was 0.94 nM; on Pim 1, 0.03 nM. In test [1], this molecule yielded a half-maximal effective concentration (EC50) of 11 nM.

Turning to `C[C@H]1CN(c2ccncc2NC(=O)c2ccc(F)c(-c3c(F)cc([S@@+](C)[O-])cc3F)n2)C[C@@H](N)[C@@H]1O` [Example 26, N-(4-((3R,4R,5S)-3-amino-4-hydroxy-5-methylpiperidin-1-yl)pyridin-3-yl)-6-(2,6-difluoro-4-((R)-methylsulfinyl)phenyl)-5-fluoropicolinamide], the values for the IC50 against Pim 3, at Pim 2 and against Pim 1 were 2.21 nM, 1.88 nM and 0.05 nM, respectively. The molecule also yielded an EC50 in test [1] of 42 nM.

`C[C@@H]1C[C@H](N)C[C@H](c2ccncc2NC(=O)c2ccc(F)c(-c3c(F)ccc(OCCO)c3F)n2)C1` [Example 29, N-(4-((1R,3S,5S)-3-amino-5-methylcyclohexyl)pyridin-3-yl)-6-(2,6-difluoro-3-(2-hydroxyethoxy)phenyl)-5-fluoropicolinamide]: the IC50 was determined as 1.08 nM on Pim 3, 2.33 nM on Pim 2 and 0.04 nM on Pim 1. The EC50 in test [1] was 64 nM.

As for `C[C@H]1C[C@@H](c2ccncc2NC(=O)c2ccc(F)c(-c3c(F)ccc(OCCO)c3F)n2)C[C@@H](N)[C@@H]1O` [Example 30, N-(4-((1R,3R,4R,5S)-3-amino-4-hydroxy-5-methylcyclohexyl)pyridin-3-yl)-6-(2,6-difluoro-3-(2-hydroxyethoxy)phenyl)-5-fluoropicolinamide], the half-maximal inhibitory concentration (IC50) came out at 2.25 nM against Pim 3, 11.4 nM against Pim 2 and 0.07 nM against Pim 1. The molecule also registered an EC50 in test [1] of 186 nM.

`C[C@H]1C[C@@H](c2ccncc2NC(=O)c2ccc(F)c(-c3c(F)cc(OCCO)cc3F)n2)C[C@@H](N)[C@@H]1O` [Example 32, N-(4-((1R,3R,4R,5S)-3-amino-4-hydroxy-5-methylcyclohexyl)pyridin-3-yl)-6-(2,6-difluoro-4-(2-hydroxyethoxy)phenyl)-5-fluoropicolinamide]: the half-maximal inhibitory concentration (IC50) amounted to 1.9 nM against Pim 3, 4.76 nM at Pim 2 and 0.06 nM against Pim 1. In test [1], the midpoint of the response, the EC50, lay at 52 nM.
